Read-outs that look alike come from different tables or passages of the source.
Legend:
[1] = system: Colorado Potato beetle, Leptinotarsa decimlineata; test: Field trial, foliar application on potato, feeding damage assessment; format: in vivo
Excerpt: 1. Potato-Colorado Potato Beetle, Leptinotarsa decimlineata:
Foliar application: Field trials were set up. The plots were laid out in 5-meter rows with 4 replications. Applications of Compound I-R-1 was done. Feeding damage assessments were taken at 6, 15 and 20 days after application for the entire plot.

[2] = system: Colorado Potato Beetle (CPB, Leptinotarsa decemlineata); test: Colorado Potato Beetle dipping bioassay (foliar method) with potato plants; format: in vivo; settings: for Activity against CPB by potato plant dipping assay / Feeding damage protection of potato plants, Feeding Protection (%) / Feeding damage protection of potato plants (%), Control corrected: 100 ppm; for Feeding damage protection of potato plants, Feeding Protection (%) / Feeding damage protection of potato plants (%), Control corrected / mortality at 100 ppm: leaf dipping, 2nd instar CPB, 5 days after infest; for mortality at 100 ppm: Leptinotarsa decemlineata, foliar, 120 h
Excerpt: 2. Method: Colorado Potato Beetle (CPB, Leptinotarsa decemlineata) Dipping Bioassay (Foliar Method) with Potato Plants Serial dilutions of TGAI are made in 50:50 (acetone: H2O) 0.01% kinetic solvent solution. Potato plant true leaves are snipped off the plant, treated by dipping method in a bowl with acetone-resistant plastic liner and inserted into a glass flask filled with water of the stem part to prevent dehydration of the leaves. Leaves are air-dried in hood, and transferred to petri dishes preset with a filter paper soaked with 2.5 ml water. The leaves are infested with five 2nd instar CPB per dish. 6 replicates/treatment and one rate (100 ppm)/test analog. Petri dishes are held for 5 days after infest at a […], 50% RH and 14/10 light/dark cycle in walk-in chamber. Both plant feeding damage and mortality of CPB were evaluated.

[3] = control corrected, read-out: Mortality of CPB (%), Control corrected
[4] = read-out: Mortality of CPB, Mortality (%)

SMILES: C[n+]1c([O-])c(-c2ccccc2)c(=O)n2c1SC[C@@H]2c1cnc(Cl)s1 [Compound (I-R-1)]
- Efficacy against L. decimlineata as foliar application in terms of reduction in feeding damage ([1]; foliar application (Table 2)): good efficacy
- Feeding damage (%) A06 ([1]; foliar treatment, 60 g ai/ha, 6 days after application, entire plot): 6.5%
- Feeding damage (%) A15 ([1]; foliar treatment, 60 g ai/ha, 15 days after application, entire plot): 5.0%
- Feeding damage (%) A20 ([1]; foliar treatment, 60 g ai/ha, 20 days after application, entire plot): 8.0%
- Activity against CPB by potato plant dipping assay [2]: active
- Feeding damage protection of potato plants, Feeding Protection (%) [2]: 90.83%
- Feeding damage protection of potato plants (%), Control corrected ([2]; control corrected): 90.40%
- mortality at 100 ppm [2, 3]: 80%
- mortality at 100 ppm [2, 4]: 80%

SMILES: C[n+]1c([O-])c(-c2ccccc2)c(=O)n2c1SCC2c1cnc(Cl)s1 (racemic) [Compound (I)]
- Activity against CPB by potato plant dipping assay [2]: active
- Feeding damage protection of potato plants, Feeding Protection (%) [2]: 89.17%
- Feeding damage protection of potato plants (%), Control corrected ([2]; control corrected): 88.60%
- mortality at 100 ppm [2, 3]: 56.7%
- mortality at 100 ppm [2, 4]: 56.7%

SMILES: C[n+]1c([O-])c(-c2ccccc2)c(=O)n2c1CCC2c1cnc(Cl)s1 (stereo not drawn) [Compound C-6, reference compound]
- Activity against CPB by potato plant dipping assay [2]: inactive
- Feeding damage protection of potato plants, Feeding Protection (%) [2]: 11.67%
- Feeding damage protection of potato plants (%), Control corrected ([2]; control corrected): 7.00%
- mortality at 100 ppm [2, 3]: 0%
- mortality at 100 ppm [2, 4]: 0%

SMILES: C[n+]1c([O-])c(-c2ccccc2)c(=O)n2c1OCC2c1cnc(Cl)s1 (stereo not drawn) [Compound C-19, reference compound]
- Activity against CPB by potato plant dipping assay [2]: inactive
- Feeding damage protection of potato plants, Feeding Protection (%) [2]: 5.00%
- Feeding damage protection of potato plants (%), Control corrected ([2]; control corrected): 0.00%
- mortality at 100 ppm [2, 3]: 3.33%
- mortality at 100 ppm [2, 4]: 3.33%

Source: patent US12532887B2, “Method for controlling pests of potato plants” (BASF SE, priority 2018, dated 2026)
